Results from patent EP4603105A1, “PHARMACEUTICAL COMPOSITION CONTAINING CYCLIC COMPOUND HAVING SELECTIVE KRAS INHIBITORY EFFECT AGAINST HRAS AND NRAS” (CHUGAI SEIYAKU KABUSHIKI KAISHA, priority 2022, dated 2024).
Read-outs that look alike come from different tables or passages of the source.

Experiments:
[1] = molecular target: HRAS wild-type protein (Homo sapiens, UniProt P01112); assay: Binding to HRAS by surface plasmon resonance (SPR), KD and KD ratio to KRAS
Outline: (§1)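 Affinity is measured by surface plasmon resonance at 30°C against captured, GDP-loaded RAS carrying a biotinylated Avi tag. Compounds are titrated by single-cycle kinetics, and KD comes from a 1:1 fit.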

[2] = molecular target: GDP-bound NRAS wild-type protein (Homo sapiens, UniProt P01111); assay: Binding to NRAS by surface plasmon resonance (SPR), KD and KD ratio to KRAS
Outline: as §1

[3] = tested on: human lung cancer strain NCI-H441; assay: NCI-H441 cell proliferation inhibitory activity (CellTiter-Glo, 4 days); type: cell-based; conditions: read-out: NCl-H441 IC50
Outline: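 Readout: […] after the ATP-based reagent. Compound: serial dilutions in dimethyl sulfoxide.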

[4] = molecular target: GDP-bound KRAS wild-type protein (Homo sapiens, UniProt P01116); assay: Binding to KRAS by surface plasmon resonance (SPR), dissociation constant KD
Outline: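 Measured at 30°C: SPR with GDP-loaded, E. coli-expressed biotin-Avi RAS captured (~100–300 RU), ascending 75 s compound injections, HBS pH 7.4 with GDP, MgCl2, 4% DMSO. KD from 1:1 fit.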

[5] = ratio of KD with respect to HRAS wild-type protein to KD with respect to KRAS
[6] = ratio of KD with respect to GDP-bound NRAS wild-type protein to KD with respect to KRAS
[7] = 50% proliferation inhibitory concentration, four days
[8] = Single Cycle Kinetics, 1:1 binding model
[9] = ratio of KD for HRAS wild-type protein to KD for KRAS
[10] = ratio of KD for GDP-bound NRAS wild-type protein to KD for KRAS

GDP-bound KRAS wild-type protein, sequence (P01116 1-188 isoform P01116-2): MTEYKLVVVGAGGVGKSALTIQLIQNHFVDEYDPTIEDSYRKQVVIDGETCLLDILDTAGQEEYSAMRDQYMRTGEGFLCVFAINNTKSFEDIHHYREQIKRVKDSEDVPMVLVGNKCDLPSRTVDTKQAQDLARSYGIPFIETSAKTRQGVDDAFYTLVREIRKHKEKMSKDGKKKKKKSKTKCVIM
HRAS wild-type protein, sequence (P01112 whole entry): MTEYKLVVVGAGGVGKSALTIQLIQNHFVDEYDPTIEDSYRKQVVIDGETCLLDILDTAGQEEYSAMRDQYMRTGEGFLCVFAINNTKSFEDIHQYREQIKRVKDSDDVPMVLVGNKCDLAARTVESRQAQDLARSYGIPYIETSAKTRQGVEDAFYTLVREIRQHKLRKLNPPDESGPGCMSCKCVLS
GDP-bound NRAS wild-type protein, sequence (P01111 whole entry): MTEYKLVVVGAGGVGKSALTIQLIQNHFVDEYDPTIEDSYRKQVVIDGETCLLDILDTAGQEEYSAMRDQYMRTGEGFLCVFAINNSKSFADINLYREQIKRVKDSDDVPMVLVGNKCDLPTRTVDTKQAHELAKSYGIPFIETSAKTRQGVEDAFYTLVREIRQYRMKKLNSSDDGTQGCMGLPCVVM

IC50 [3, 7] | Kd [4, 8] | IC50 ([3]; NCI-H441 cells, 4 days) | Kd ([4]; Single Cycle Kinetics) | Kd ([4]; 1:1 binding model) | Structure (SMILES) | HRAS /KRAS [1, 5] | NRAS /KRAS [2, 6] | HRAS /KRAS [1, 9] | NRAS /KRAS [2, 10]
92.5 nM | 1.1 nM | – | – | – | CCO[C@@H]1C[C@H]2C(=O)NC3(CCC3)C(=O)N(C)[C@@H](C(CC)CC)C(=O)N(C)[C@H](C(=O)N(C)C)CC(=O)N(C)[C@@H](CC(C)C)C(=O)N[C@@H]([C@@H](C)CC)C(=O)N(C)CC(=O)N(C)[C@H]3C/C=C\CCN(C3=O)[C@@H](Cc3ccc(C(F)(F)F)cc3)C(=O)N(C)CC(=O)N[C@@H](CCc3ccc4sccc4c3)C(=O)N2C1 [PP1225] | A (a compound having 10 or more and less than 20 is denoted as A) | AA (a compound having 20 or more is denoted as AA) | – | –
– | – | 3.9 nM | 0.028 nM | – | C#CC[C@H]1C(=O)N[C@@H]([C@@H](C)CC)C(=O)N(C)CC(=O)N(C)[C@H]2C/C=C\CCN(C2=O)[C@@H](Cc2ccc(C)cc2)C(=O)N(C)CC(=O)N[C@@H](CCc2ccc(C(F)(F)F)c(OC)c2)C(=O)N2C[C@H](OCC)C[C@H]2C(=O)N(C)C2(CCC2)C(=O)N(C)[C@@H](C2CCCC2)C(=O)N(C)[C@H](C(=O)N(C)C)CC(=O)N1C [PP3236] | – | – | B (a compound having 3 or more and less than 10 is denoted as B) | A (a compound having 10 or more and less than 20 is denoted as A)
– | – | 79.7 nM | – | 0.97 nM | CCC(CC)[C@H]1C(=O)N(C)[C@H](C(=O)N(C)C)CC(=O)N(C)[C@@H](COC)C(=O)N[C@@H]([C@@H](C)CC)C(=O)N(C)CC(=O)N(C)[C@H]2C/C=C\CCN(C2=O)[C@@H](CC2CCC(F)(F)CC2)C(=O)N(C)CC(=O)N[C@@H](CCc2ccc(C(F)(F)F)c(OC)c2)C(=O)N2C[C@@H](C)C[C@H]2C(=O)NC2(CC(C)(C)C2)C(=O)N1C [PP2442] | – | – | A (a compound having 10 or more and less than 20 is denoted as A) | A (a compound having 10 or more and less than 20 is denoted as A)
– | – | 54.9 nM | 1.4 nM | – | C=CC[C@H]1C(=O)N(C)[C@H](C(=O)N(C)C)CC(=O)N(C)[C@@H](CC(C)C)C(=O)N[C@@H]([C@@H](C)CC)C(=O)N(C)CC(=O)N(C)[C@H]2C/C=C\CCN(C2=O)[C@@H](Cc2ccc(C)cc2)C(=O)N(C)CC(=O)N[C@@H](CCc2ccc(C(F)(F)F)c(OC)c2)C(=O)N2C[C@H](OCC)C[C@H]2C(=O)N(C)C2(CCC2)C(=O)N1C [PP3344] | – | – | B (a compound having 3 or more and less than 10 is denoted as B) | A (a compound having 10 or more and less than 20 is denoted as A)
26.8 nM | 0.27 nM | – | – | – | CCO[C@@H]1C[C@H]2C(=O)NC3(CCC3)C(=O)N(C)[C@@H](C(CC)CC)C(=O)N(C)[C@H](C(=O)N(C)C)CC(=O)N(C)[C@@H](CC3CC3)C(=O)N[C@@H]([C@@H](C)CC)C(=O)N(C)CC(=O)N(C)[C@H]3C/C=C\CCN(C3=O)[C@@H](Cc3ccc(C(F)(F)F)cc3)C(=O)N(C)CC(=O)N[C@@H](CCc3ccc(C(F)(F)F)c(OC)c3)C(=O)N2C1 [PP1211] | B (a compound having 3 or more and less than 10 is denoted as B) | A (a compound having 10 or more and less than 20 is denoted as A) | – | –
86.8 nM | 0.066 nM | – | – | – | CC[C@H](C)[C@@H]1NC(=O)[C@H](CC)N(C)C(=O)C[C@@H](C(=O)N(C)C)N(C)C(=O)[C@H](C2CCCC2)N(C)C(=O)C2(CCC2)NC(=O)[C@@H]2C[C@H](F)CN2C(=O)[C@H](CCc2cc(F)c(C(F)(F)F)c(F)c2)NC(=O)CN(C)C(=O)[C@H](Cc2ccc(C(F)(F)F)cc2)N2CC/C=C\C[C@@H](C2=O)N(C)C(=O)CN(C)C1=O [PP1132] | B (a compound having 3 or more and less than 10 is denoted as B) | A (a compound having 10 or more and less than 20 is denoted as A) | – | –
– | – | 13.9 nM | – | 0.4 nM | CCC[C@H]1C(=O)N[C@@H]([C@@H](C)CC)C(=O)N(C2CC2)CC(=O)N(C)[C@H]2C/C=C\CCN(C2=O)[C@@H](Cc2ccc(C)cc2)C(=O)N(C)CC(=O)N[C@@H](CCc2ccc(C(F)(F)F)c(OC)c2)C(=O)N2C[C@H](OCC)C[C@H]2C(=O)NC2(CC(C)(C)C2)C(=O)N(C)[C@@H](CC(C)(C)C)C(=O)N(C)[C@H](C(=O)N(C)C)CC(=O)N1C [PP2722] | – | – | B (a compound having 3 or more and less than 10 is denoted as B) | B (a compound having 3 or more and less than 10 is denoted as B)

Continued, compound first:

Structure (SMILES) | IC50 [3, 7] | Kd [4, 8] | IC50 ([3]; NCI-H441 cells, 4 days) | Kd ([4]; Single Cycle Kinetics) | Kd ([4]; 1:1 binding model) | HRAS /KRAS [1, 5] | NRAS /KRAS [2, 6] | HRAS /KRAS [1, 9] | NRAS /KRAS [2, 10]
C#CC[C@H]1C(=O)N[C@@H]([C@@H](C)CC)C(=O)N2CCC[C@H]2C(=O)N(C)[C@H]2C/C=C\CCN(C2=O)[C@@H](Cc2ccc(C)cc2)C(=O)N(C)CC(=O)N[C@@H](CCc2cc(F)c(C(F)(F)F)c(F)c2)C(=O)N2C[C@H](OCC)C[C@H]2C(=O)N(C)C2(CCC2)C(=O)N(C)[C@@H](C2CCCC2)C(=O)N(C)[C@H](C(=O)N(C)C)CC(=O)N1C [PP3256] | – | – | 4.2 nM | 0.078 nM | – | – | – | A (a compound having 10 or more and less than 20 is denoted as A) | A (a compound having 10 or more and less than 20 is denoted as A)
CCO[C@@H]1C[C@H]2C(=O)NC3(CCC3)C(=O)N(C)[C@@H](C3CCCC3)C(=O)N(C)[C@H](C(=O)N3CCOCC3)CC(=O)N(C)[C@@H](CC(F)F)C(=O)N[C@@H]([C@@H](C)CC)C(=O)N(C)CC(=O)N(C)[C@H]3C/C=C\CCN(C3=O)[C@@H](Cc3ccc(C(F)(F)F)cc3)C(=O)N(C)CC(=O)N[C@@H](CCc3cc(F)c(C(F)(F)F)c(F)c3)C(=O)N2C1 [PP1285] | 24.6 nM | 0.15 nM | – | – | – | A (a compound having 10 or more and less than 20 is denoted as A) | AA (a compound having 20 or more is denoted as AA) | – | –
CCO[C@@H]1C[C@H]2C(=O)NC3(CC(C)(C)C3)C(=O)N(C)[C@@H](C3CCCC3)C(=O)N(C)[C@H](C(=O)N(C)CC)CC(=O)N(C)[C@@H]([C@H](C)OC)C(=O)N[C@@H]([C@@H](C)CC)C(=O)N3CCC[C@H]3C(=O)N(C)[C@H]3C/C=C\CCN(C3=O)[C@@H](Cc3ccc(C(F)(F)F)cc3)C(=O)N(C)CC(=O)N[C@@H](CCc3cc(F)c(C(F)(F)F)c(F)c3)C(=O)N2C1 [PP3223] | – | – | 49.6 nM | 1.1 nM | – | – | – | A (a compound having 10 or more and less than 20 is denoted as A) | A (a compound having 10 or more and less than 20 is denoted as A)
CCO[C@@H]1C[C@H]2C(=O)NC3(CCC3)C(=O)N(C)[C@@H](C3CCCC3)C(=O)N(C)[C@H](C(=O)N3CCOCC3)CC(=O)N(C)[C@@H](CC(C)C)C(=O)N[C@@H]([C@@H](C)CC)C(=O)N3CC[C@H]3C(=O)N(C)[C@H]3CC[C@@H](C)CN(C3=O)[C@@H](Cc3ccc(C(F)(F)F)cc3)C(=O)N(C)CC(=O)N[C@@H](CCc3cc(F)c(C(F)(F)F)c(F)c3)C(=O)N2C1 [PP1373] | 12.2 nM | 0.35 nM | – | – | – | B (a compound having 3 or more and less than 10 is denoted as B) | B (a compound having 3 or more and less than 10 is denoted as B) | – | –
CCO[C@@H]1C[C@H]2C(=O)NC3(CC(C)(C)C3)C(=O)N(C)[C@@H](C3CCCC3)C(=O)N(C)[C@H](C(=O)N(C)C)CC(=O)N(C)[C@@H](CC(C)C)C(=O)N[C@@H]([C@@H](C)CC)C(=O)N(C)CC(=O)N(C)[C@H]3C/C(F)=C\CCN(C3=O)[C@@H](Cc3ccc(C)cc3)C(=O)N(C)CC(=O)N[C@@H](CCc3cc(F)c(C(F)(F)F)c(F)c3)C(=O)N2C1 [PP3513] | – | – | 8.6 nM | 0.14 nM | – | – | – | B (a compound having 3 or more and less than 10 is denoted as B) | B (a compound having 3 or more and less than 10 is denoted as B)
CCO[C@@H]1C[C@H]2C(=O)NC3(CC(C)(C)C3)C(=O)N(C)[C@@H](C3CCCC3)C(=O)N(C)[C@H](C(=O)N(C)CC)CC(=O)N(C)[C@@H]([C@H](C)OC)C(=O)N[C@@H]([C@@H](C)CC)C(=O)N3CCC[C@H]3C(=O)N(C)[C@H]3C/C=C\CCN(C3=O)[C@@H](Cc3ccc(C(F)(F)F)cc3)C(=O)N(C)CC(=O)N[C@@H](CCc3ccc(C(F)(F)F)c(Cl)c3)C(=O)N2C1 [PP3224] | – | – | 55.4 nM | 1.9 nM | – | – | – | A (a compound having 10 or more and less than 20 is denoted as A) | A (a compound having 10 or more and less than 20 is denoted as A)
C#CCN1CC(=O)N(C)[C@H]2C/C=C\CCN(C2=O)[C@@H](Cc2ccc(C(F)F)cc2)C(=O)N(C)CC(=O)N[C@@H](CCc2cc(F)c(C(F)(F)F)c(F)c2)C(=O)N2C[C@H](OC(C)C)C[C@H]2C(=O)N(C)C2(CCC2)C(=O)N(C)[C@@H](C(CC)CC)C(=O)N(C)[C@H](C(=O)N(C)C)CC(=O)N(C)[C@@H](COCCC)C(=O)N[C@@H]([C@@H](C)CC)C1=O [PP3490] | – | – | 23.7 nM | 0.3 nM | – | – | – | A (a compound having 10 or more and less than 20 is denoted as A) | A (a compound having 10 or more and less than 20 is denoted as A)
CCC[C@H]1C(=O)N[C@@H](CC(C)C)C(=O)N(CCOC)CC(=O)N(C)[C@H]2C/C=C\CCN(C2=O)[C@@H](Cc2ccc(C)cc2)C(=O)N(C)CC(=O)N[C@@H](CCc2ccc(C(F)(F)F)c(Cl)c2)C(=O)N2C[C@H](OCC)C[C@H]2C(=O)NC2(CCC2)C(=O)N(C)[C@@H](C2CCCC2)C(=O)N(C)[C@H](C(=O)N(C)C)CC(=O)N1C [PP2546] | – | – | 295 nM | – | 4.7 nM | – | – | B (a compound having 3 or more and less than 10 is denoted as B) | B (a compound having 3 or more and less than 10 is denoted as B)
